In BindingDB's records for doi:10.7270/Q27H1H0J (Srmlsc, 2008):

target: T1, M1 family aminopeptidase (Plasmodium falciparum (isolate FcB1 / Columbia), UniProt O96935); assay: P. falciparum M1AAP inhibitors, biochemical, fluorogenic H-Leu-NHMec substrate, 1536-well (AID 1445)
T1 sequence (O96935 whole entry): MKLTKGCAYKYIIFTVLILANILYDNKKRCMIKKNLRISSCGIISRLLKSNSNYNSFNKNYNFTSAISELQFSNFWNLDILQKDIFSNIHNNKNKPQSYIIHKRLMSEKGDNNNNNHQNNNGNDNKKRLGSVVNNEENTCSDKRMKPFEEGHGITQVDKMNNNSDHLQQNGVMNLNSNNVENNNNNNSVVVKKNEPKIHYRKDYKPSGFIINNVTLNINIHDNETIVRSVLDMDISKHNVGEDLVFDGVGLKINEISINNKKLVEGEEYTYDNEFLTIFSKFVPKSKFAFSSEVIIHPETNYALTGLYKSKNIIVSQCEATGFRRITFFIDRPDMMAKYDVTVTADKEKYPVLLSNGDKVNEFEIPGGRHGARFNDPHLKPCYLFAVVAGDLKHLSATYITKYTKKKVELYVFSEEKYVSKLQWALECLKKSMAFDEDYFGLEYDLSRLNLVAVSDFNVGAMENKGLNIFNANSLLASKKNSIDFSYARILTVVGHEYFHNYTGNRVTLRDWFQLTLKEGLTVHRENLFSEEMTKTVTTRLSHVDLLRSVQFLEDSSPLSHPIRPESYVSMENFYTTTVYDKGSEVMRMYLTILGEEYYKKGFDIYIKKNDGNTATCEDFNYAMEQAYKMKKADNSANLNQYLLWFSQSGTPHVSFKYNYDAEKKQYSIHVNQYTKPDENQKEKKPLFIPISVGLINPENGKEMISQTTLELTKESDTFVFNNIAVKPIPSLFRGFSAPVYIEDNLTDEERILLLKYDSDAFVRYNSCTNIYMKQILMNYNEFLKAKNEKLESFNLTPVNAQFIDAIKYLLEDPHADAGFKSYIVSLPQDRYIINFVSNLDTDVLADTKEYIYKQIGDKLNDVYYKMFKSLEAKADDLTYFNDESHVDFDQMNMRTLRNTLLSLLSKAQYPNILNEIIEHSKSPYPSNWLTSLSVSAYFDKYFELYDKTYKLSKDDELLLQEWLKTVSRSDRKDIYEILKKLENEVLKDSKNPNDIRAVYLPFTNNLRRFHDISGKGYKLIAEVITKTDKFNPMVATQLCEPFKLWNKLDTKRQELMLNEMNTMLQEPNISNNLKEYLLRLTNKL

| IC50 | SMILES |
| --- | --- |
| 3.05 µM | CC1=CC([N+](=O)[O-])=CC(/C=N/NC(=O)C2COc3ccccc3O2)C1=O (stereo unspecified) [N'-[(E)-(5-methyl-3-nitro-6-oxocyclohexa-2,4-dien-1-ylidene)methyl]-2,3-dihydro-1,4-benzodioxine-3-carbohydrazide] |
| 31.4 µM | O=C1C([N+](=O)[O-])=CC=CC1/C=N/NC(=O)C1COc2ccccc2O1 (stereo unspecified) [N'-[(E)-(5-nitro-6-oxo-1-cyclohexa-2,4-dienylidene)methyl]-2,3-dihydro-1,4-benzodioxin-3-carbohydrazide] |
| 12 µM | CC(NNC(=O)c1cc2ccccc2cc1O)=C1C(=O)c2ccccc2C1=O [N-[1-[1,3-bis(oxidanylidene)inden-2-yl]ethylideneamino]-3-oxidanyl-naphthalene-2-carboxamide] |
| 12.2 µM | COC1=CC(C=NNC(=O)[C@H](Cc2c[nH]c3ccccc23)NC(=O)OCC(C)C)C=C([N+](=O)[O-])C1=O (stereo partly drawn) [N-[(2S)-3-(1H-indol-3-yl)-1-[[(E)-(3-methoxy-5-nitro-4-oxo-1-cyclohexa-2,5-dienylidene)methyl]hydrazo]-1-oxopropan-2-yl]carbamic acid 2-methylpropyl ester] |
| 66.5 µM | CCCCCCC(=O)N(O)c1cc(O)n(-c2ccccc2)c1O [SMR000043985] |
| 52.2 µM | COc1ccccc1-c1nnc(SCC(=O)C(C#N)c2nc3ccccc3[nH]2)n1C1CCCCC1 (stereo unspecified) [SMR000067321] |
| 44.6 µM | COc1cc(Br)c(C2c3c(-c4cccnc4)n[nH]c3OC(=N)C2C#N)cc1OC (stereo unspecified) [SMR000114618] |
| 47 µM | Cc1cc(=O)[nH]c(N=NCc2c(O)n(-c3ccccc3)c(=O)c3ccccc23)n1 [SMR000221270] |
| 52.2 µM | C=c1c(C#N)c2[nH]c(N)c(C#N)c(C)c-2c1=Cc1ccc(-c2ccccc2C(=O)O)o1 [SMR000277284] |
| 13.3 µM | O=C(Cn1cnc([N+](=O)[O-])n1)N/N=C/C1C=C(Cl)C=CC1=O (stereo unspecified) [SMR000312480] |
| 109 µM | O=C(O)c1cccc(NC(=S)NN=Cc2ccccc2OCc2cccc(Br)c2)c1 [SMR000312741] |
| 2.41 µM | C=c1[nH]n(-c2ccc(Cl)c(C(=O)O)c2)c(=O)c1=Cc1ccc(-c2ccc(C(=O)O)cc2)o1 [SMR000312901] |
| 54.6 µM | C#CCOCCOCCOCCNc1nc(N2CCN(C(=O)[C@H](Cc3cc4ccccc4[nH]3)n3cc([C@@H](N)C(C)CC)nn3)CC2)nc(N2CCN(C(=O)[C@H](Cc3cc4ccccc4[nH]3)n3cc([C@@H](N)CC(C)C)nn3)CC2)n1 (stereo partly specified) [SMR000391064] |
| 72 µM | C#CCOCCOCCOCCNc1nc(N2CCN(C(=O)C(Cc3cc4ccccc4[nH]3)n3cc(C(N)C(C)CC)nn3)CC2)nc(N2CCN(C(=O)C(Cc3cc4ccccc4[nH]3)n3cc(C(N)C(C)CC)nn3)CC2)n1 (stereo unspecified) [SMR000391068] |
| 52.3 µM | Cc1cc(C(=O)NN=CC2C=C(Cl)C=C([N+](=O)[O-])C2=O)[nH]n1 (stereo unspecified) [SMR000414694] |
| 48.5 µM | Cc1ccc2c(c1C)Nc1c(c(=O)c1=O)N2 [SMR000459860] |
| 63.5 µM | C/C(Cl)=C\CN1C(=O)C(=NNC(N)=S)c2ccccc21 [[(Z)-[1-[(E)-3-chlorobut-2-enyl]-2-oxoindol-3-ylidene]amino]thiourea] |
| 4.75 µM | COC1=CC(C=NNC(=O)C(Cc2c[nH]c3ccccc23)NC(=O)OCc2ccccc2)C=C([N+](=O)[O-])C1=O (stereo unspecified) [benzyl N-[3-(1H-indol-3-yl)-1-[2-[(E)-(3-methoxy-5-nitro-4-oxocyclohexa-2,5-dien-1-ylidene)methyl]hydrazinyl]-1-oxopropan-2-yl]carbamate] |
| 36.7 µM | COC(=O)CN1C(=O)C2(c3ccccc31)c1c(-c3cccs3)n[nH]c1OC(=N)C2C#N (stereo unspecified) [methyl (6'-amino-5'-cyano-2-oxo-3'-thien-2-yl-1'H-spiro[indole-3,4'-pyrano[2,3-c]pyrazol]-1(2H)-yl)acetate] |
| 25.8 µM | Cc1nnc(=O)[nH]c1N=NCc1cccs1 [thiophene-2-carbaldehyde (6-methyl-3-oxo-2,3-dihydro-1,2,4-triazin-5-yl)hydrazone] |
| 47.8 µM | CCOc1cc(CN=Nc2nc(O)c(CC(=O)O)s2)ccc1OS(=O)(=O)c1ccc(C)cc1 [{2-[(3-ethoxy-4-{[(4-methylphenyl)sulfonyl]oxy}benzylidene)hydrazono]-4-oxo-1,3-thiazolidin-5-yl}acetic acid] |

The remaining lines, values behind:

| SMILES | IC50 |
| --- | --- |
| N#CC(C(=O)CSc1nnc(Cc2cccs2)n1C1CCCCC1)c1nc2ccccc2[nH]1 (stereo unspecified) [MLS000098387] | 78.9 µM |
| Cc1ccc(O)c(NC=C2C(=O)c3ccccc3C2=O)c1 [MLS000104939] | 71.9 µM |
| Cc1c(N2C(=O)C(=O)C(C(=O)c3ccc(Cl)cc3)C2c2ccccc2)c(=O)n(-c2ccccc2)n1C (stereo unspecified) [MLS000331609] | 62.1 µM |
| CC(NNC(=O)c1ccccc1O)=C1C(=O)c2ccccc2C1=O [MLS000523164] | 12.8 µM |
| COC1=CC(/C=C(\C#N)c2nc3ccccc3s2)C=C([N+](=O)[O-])C1=O (stereo unspecified) [MLS000682120] | 11 µM |
| O=C(O)Cc1sc(N[N-][CH+]c2ccc(-c3ccc(Cl)c([N+](=O)[O-])c3)o2)nc1O [MLS000689975] | 54.1 µM |
| CCOC1=CC(/C=N/NC(=O)c2cccs2)C=C([N+](=O)[O-])C1=O (stereo unspecified) [MLS000698505] | 103 µM |
| CCOC(=O)C1C(=O)C(=Cc2ccc(OCC(=O)O)c(OCC)c2)SC1=Nc1ccc(OC)cc1 (stereo unspecified) [MLS000704394] | 36.3 µM |
| Cc1c(N2C(=O)C(=O)C(C(=O)c3ccc(Br)cc3)C2c2cccnc2)c(=O)n(-c2ccccc2)n1C (stereo unspecified) [MLS000724383] | 38.1 µM |
| CCN1C(=O)/C(=N\NC(=O)c2cccs2)c2ccccc21 [MLS000760154] | 70.2 µM |
| O=C(O)COc1ccccc1CN=Nc1ccc(S(=O)(=O)Nc2ccc(Cl)cc2)cc1[N+](=O)[O-] [MLS000774437] | 38.9 µM |
| COC(=O)c1ccc(COc2ccccc2CN=Nc2cccc(C(=O)O)c2)cc1 [MLS000775447] | 47 µM |
| CCOC(=O)C1C(CC)=Nc2ccccc2N=C1NS(=O)(=O)c1cc(Br)ccc1Br (stereo unspecified) [MLS000775637] | 30.3 µM |
| O=C(O)c1cccc(-c2ccc(CN=Nc3ccc([N+](=O)[O-])cc3)o2)c1 [MLS000777078] | 27.3 µM |
| COc1ccc(-c2c/c(=N\CCCCCC(=O)O)c3cc(C)ccc3o2)cc1 [[2-(4-methoxyphenyl)-6-methyl-chromen-4-ylidene]-(6-oxidanyl-6-oxidanylidene-hexyl)azanium;perchlorate] | 7.22 µM |
